# Test results reported in US5792765A, “Substituted oxazolidinones” (Bayer Aktiengesellschaft, priority 1996, dated 1998).
# Tested on: Mycobacterium smegmatis DSM 43061
# Assay: MIC by broth microdilution, rapidly growing mycobacteria
# Type: cell-based
# Conditions: Mycolicibacterium smegmatis, DSM43061; strain DSM 43061; inoculum 2.20E + 04 /ml; 37° C., 2-4 days
# Description: (§1) For rapidly growing mycobacteria the MIC determination was carried out following the broth microdilution method described by Swenson [cf. J. M. Swenson, C. Thomberry, U. A. Silcox, Rapidly growing mycobacteria. Testing of susceptibility to 34 antimicrobial agents by broth microdilution. Antimicrobial Agents and Chemotherapy Vol. 22, 186-192 (1982)]. A deviation from this was the brain-heart extract medium treated with 0.1% by volume of Tween 80.
# (§2) The mycobacterial strains used were obtained from the DSM (German Collection of Microorganisms, Brunswick). They were incubated at 37° C. in a humid chamber.
# (§3) The MIC values were read off after 2-4 days when the preparation-free controls had become turbid due to growth.
row,Structure (SMILES),MIC [µg/mL]
1,CNC(=S)NC[C@H]1CN(c2ccc(-c3ccncc3)s2)C(=O)O1 [Example 12],8
2,CC(=S)NC[C@H]1CN(c2ccc(-c3ccncc3)s2)C(=O)O1 [Example 13],2
3,CNC(=S)NC[C@H]1CN(c2ccc(-c3cccnc3)s2)C(=O)O1 [Example 14],8
4,CC(=S)NC[C@H]1CN(c2ccc(-c3cccnc3)s2)C(=O)O1 [Example 15],1
5,CNC(=S)NC[C@H]1CN(c2ccc3c(c2)sc(=O)n3C)C(=O)O1 [Example 20],0.25

# Tested on: Mycobacterium smegmatis DSM 43078
# Assay: as above
# Type: cell-based
# Conditions: Mycolicibacterium smegmatis, DSM43078; strain DSM 43078; inoculum 4.20E + 04 /ml; 37° C., 2-4 days
# Description: as §1, §2, §3
row,Structure (SMILES),MIC [µg/mL]
1,CC(=S)NC[C@H]1CN(c2ccc(-c3ccncc3)s2)C(=O)O1 [Example 13],1
2,CNC(=S)NC[C@H]1CN(c2ccc(-c3cccnc3)s2)C(=O)O1 [Example 14],4
3,CC(=S)NC[C@H]1CN(c2ccc(-c3cccnc3)s2)C(=O)O1 [Example 15],0.5
4,CNC(=S)NC[C@H]1CN(c2ccc3c(c2)sc(=O)n3C)C(=O)O1 [Example 20],0.25

# Tested on: Mycoplasma pneumoniae strain PI 1428
# Assay: MIC determination with Mycoplasma pneumoniae, serial microdilution
# Type: cell-based
# Conditions: PI1428, PPLO medium, anaerobic, 37° C., Alamar Blue
# Description: MIC determination with Mycoplasma pneumoniae
# Mycoplasma pneumoniae strain PI 1428 was cultured under anaerobic conditions in PPLO medium, to which 1% glucose, 2.5% yeast extract, 20% horse serum (donor horse serum) and 0.002% Phenol Red were added. MIC determinations were carried out following the serial microdilution method in liquid medium described by ter Laak and coworkers (E. A. ter Laak, A. Pijpers, J. H. Noordergraaf, E. Schoevers, J. H. M. Verheijden: Comparison of Methods for in vitro Testing of Susceptibility of Porcine Mycoplasma Species to Antimicrobial Agents; Antimicrobial Agents and Chemotherapy, Vol. 35, 228-233 (1991)). At the time of the start of the colour change of the medium of the preparation-free control from red to yellow, 10% by volume of Alamar Blue was added. The incubation at 37° C. was continued for about 10 hours and the MIC defined as the value at which the medium having the smallest preparation concentration remained unchanged blue.
row,Structure (SMILES),MIC [µg/mL]
1,CNC(=S)NC[C@H]1CN(c2ccc(-c3ccncc3)s2)C(=O)O1 [Example 12],2
2,CC(=S)NC[C@H]1CN(c2ccc(-c3ccncc3)s2)C(=O)O1 [Example 13],2
3,CNC(=S)NC[C@H]1CN(c2ccc(-c3cccnc3)s2)C(=O)O1 [Example 14],8

# Tested on: Psdm. Bonn
# Assay: MIC by serial dilution on Iso-Sensitest Agar
# Type: cell-based
# Conditions: Psdm. Bonn; 37° C., about 20 hours; read-out: MIC
# Description: (§4) The minimum inhibitory concentrations (MIC) were determined by serial dilution methods on Iso-Sensitest Agar (Oxoid). For each test substance, a number of agar plates were prepared which, with an in each case doubled dilution, contained decreasing concentrations of the active compound. The agar plates were inoculated with the multipoint inoculator (Denley). For inoculation, overnight cultures of the caustive organisms were used which had previously been diluted such that each inoculation point contained about 10^4 colony-forming particles. The inoculated agar plates were incubated at 37° C., and the microorganism growth was read off after about 20 hours. The MIC value (μg/ml) indicates the lowest active compound concentration at which no growth could be detected using the naked eye.
row,Structure (SMILES),MIC [µg/mL]
1,CNC(=S)NC[C@H]1CN(c2ccc(-c3ccncc3)s2)C(=O)O1 [Example 12],> 64
2,CC(=S)NC[C@H]1CN(c2ccc(-c3ccncc3)s2)C(=O)O1 [Example 13],> 64
3,CNC(=S)NC[C@H]1CN(c2ccc(-c3cccnc3)s2)C(=O)O1 [Example 14],> 64
4,CC(=S)NC[C@H]1CN(c2ccc(-c3cccnc3)s2)C(=O)O1 [Example 15],> 64
5,CNC(=S)NC[C@H]1CN(c2ccc3c(c2)sc(=O)n3C)C(=O)O1 [Example 20],> 64

# Tested on: Staph. 9TV
# Assay: MIC by serial dilution on Iso-Sensitest Agar
# Type: cell-based
# Conditions: 37° C., about 20 hours
# Description: as §4
row,Structure (SMILES),MIC [µg/mL]
1,CNC(=S)NC[C@H]1CN(c2ccc(-c3ccncc3)s2)C(=O)O1 [Example 12],0.5
2,CC(=S)NC[C@H]1CN(c2ccc(-c3ccncc3)s2)C(=O)O1 [Example 13],≤ 0.125
3,CNC(=S)NC[C@H]1CN(c2ccc(-c3cccnc3)s2)C(=O)O1 [Example 14],0.5
4,CC(=S)NC[C@H]1CN(c2ccc(-c3cccnc3)s2)C(=O)O1 [Example 15],≤ 0.125
5,CNC(=S)NC[C@H]1CN(c2ccc3c(c2)sc(=O)n3C)C(=O)O1 [Example 20],≤ 0.125

# Tested on: Staph. 133
# Assay: MIC by serial dilution on Iso-Sensitest Agar
# Type: cell-based
# Conditions: 37° C., about 20 hours
# Description: as §4
row,Structure (SMILES),MIC [µg/mL]
1,CC(=S)NC[C@H]1CN(c2ccc(-c3ccncc3)s2)C(=O)O1 [Example 13],0.25
2,CNC(=S)NC[C@H]1CN(c2ccc(-c3cccnc3)s2)C(=O)O1 [Example 14],1
3,CC(=S)NC[C@H]1CN(c2ccc(-c3cccnc3)s2)C(=O)O1 [Example 15],0.25
4,CNC(=S)NC[C@H]1CN(c2ccc3c(c2)sc(=O)n3C)C(=O)O1 [Example 20],0.25

# Tested on: Staph. 25701
# Assay: MIC by serial dilution on Iso-Sensitest Agar
# Type: cell-based
# Conditions: 37° C., about 20 hours
# Description: as §4
row,Structure (SMILES),MIC [µg/mL]
1,CNC(=S)NC[C@H]1CN(c2ccc(-c3ccncc3)s2)C(=O)O1 [Example 12],1
2,CC(=S)NC[C@H]1CN(c2ccc(-c3ccncc3)s2)C(=O)O1 [Example 13],0.25
3,CNC(=S)NC[C@H]1CN(c2ccc(-c3cccnc3)s2)C(=O)O1 [Example 14],1
4,CC(=S)NC[C@H]1CN(c2ccc(-c3cccnc3)s2)C(=O)O1 [Example 15],0.25
5,CNC(=S)NC[C@H]1CN(c2ccc3c(c2)sc(=O)n3C)C(=O)O1 [Example 20],0.25

# Tested on: Klebs. 57 USA
# Assay: MIC by serial dilution on Iso-Sensitest Agar
# Type: cell-based
# Conditions: Klebs. 57 USA; 37° C., about 20 hours; read-out: MIC
# Description: as §4
row,Structure (SMILES),MIC [µg/mL]
1,CNC(=S)NC[C@H]1CN(c2ccc(-c3ccncc3)s2)C(=O)O1 [Example 12],> 64
2,CC(=S)NC[C@H]1CN(c2ccc(-c3ccncc3)s2)C(=O)O1 [Example 13],> 64
3,CNC(=S)NC[C@H]1CN(c2ccc(-c3cccnc3)s2)C(=O)O1 [Example 14],> 64
4,CC(=S)NC[C@H]1CN(c2ccc(-c3cccnc3)s2)C(=O)O1 [Example 15],> 64
5,CNC(=S)NC[C@H]1CN(c2ccc3c(c2)sc(=O)n3C)C(=O)O1 [Example 20],> 64

# Tested on: E. coli Neumann
# Assay: MIC by serial dilution on Iso-Sensitest Agar
# Type: cell-based
# Conditions: Escherichia coli; E. coli Neumann; 37° C., about 20 hours; read-out: MIC
# Description: as §4
row,Structure (SMILES),MIC [µg/mL]
1,CNC(=S)NC[C@H]1CN(c2ccc(-c3ccncc3)s2)C(=O)O1 [Example 12],> 64
2,CC(=S)NC[C@H]1CN(c2ccc(-c3ccncc3)s2)C(=O)O1 [Example 13],> 64
3,CNC(=S)NC[C@H]1CN(c2ccc(-c3cccnc3)s2)C(=O)O1 [Example 14],> 64
4,CC(=S)NC[C@H]1CN(c2ccc(-c3cccnc3)s2)C(=O)O1 [Example 15],> 64
5,CNC(=S)NC[C@H]1CN(c2ccc3c(c2)sc(=O)n3C)C(=O)O1 [Example 20],64

# Tested on: Staph. 48N
# Assay: MIC by serial dilution on Iso-Sensitest Agar
# Type: cell-based
# Conditions: 37° C., about 20 hours
# Description: as §4
row,Structure (SMILES),MIC [µg/mL]
1,CNC(=S)NC[C@H]1CN(c2ccc(-c3ccncc3)s2)C(=O)O1 [Example 12],1
2,CNC(=S)NC[C@H]1CN(c2ccc(-c3cccnc3)s2)C(=O)O1 [Example 14],1
3,CC(=S)NC[C@H]1CN(c2ccc(-c3cccnc3)s2)C(=O)O1 [Example 15],0.5
4,CNC(=S)NC[C@H]1CN(c2ccc3c(c2)sc(=O)n3C)C(=O)O1 [Example 20],0.25
